Test results reported in patent US8399196B2, “Nucleic acid sequencing methods, kits and reagents” (GeneForm Technologies Limited, priority 2003, dated 2013).
Where two headings read alike, the source gives them in different places.

Target: T1, Klenow exo- with template-primer (Escherichia coli, UniProt P00582, D355A/E357A)
T1 construct: purchased New England Biolabs
Type: binding
Settings: for signal +polymerase + DUpNHPP: 0.3 uM Dye-DUTP conjugate, buffer background subtracted
Procedure: (1) Dideoxy terminated primer and template were mixed at a ratio of 2:1 (final template concentrations were varied as shown)
(2) DGTP DCTP and DATP was added to a final concentration of 1 mM.
(3) 0.3 uM of Intercalator-Dye-DUTP conjugate was added to the system.
(4) In some samples non-incorporable DUTP (DUPNHPP) was added as shown.
(5) 300 nM Klenow exo- was added
(6) The system was heated to at 37° C.
Where the intercalating dye is conjugated to DNPNHPP or other nonincorporable entities, then the dideoxy terminated primer is unnecessary and will allow sequential sequencing if a limited concentration of native bases are added.
Buffer background subtracted.

T1 sequence (P00582 324-928 D355A/E357A): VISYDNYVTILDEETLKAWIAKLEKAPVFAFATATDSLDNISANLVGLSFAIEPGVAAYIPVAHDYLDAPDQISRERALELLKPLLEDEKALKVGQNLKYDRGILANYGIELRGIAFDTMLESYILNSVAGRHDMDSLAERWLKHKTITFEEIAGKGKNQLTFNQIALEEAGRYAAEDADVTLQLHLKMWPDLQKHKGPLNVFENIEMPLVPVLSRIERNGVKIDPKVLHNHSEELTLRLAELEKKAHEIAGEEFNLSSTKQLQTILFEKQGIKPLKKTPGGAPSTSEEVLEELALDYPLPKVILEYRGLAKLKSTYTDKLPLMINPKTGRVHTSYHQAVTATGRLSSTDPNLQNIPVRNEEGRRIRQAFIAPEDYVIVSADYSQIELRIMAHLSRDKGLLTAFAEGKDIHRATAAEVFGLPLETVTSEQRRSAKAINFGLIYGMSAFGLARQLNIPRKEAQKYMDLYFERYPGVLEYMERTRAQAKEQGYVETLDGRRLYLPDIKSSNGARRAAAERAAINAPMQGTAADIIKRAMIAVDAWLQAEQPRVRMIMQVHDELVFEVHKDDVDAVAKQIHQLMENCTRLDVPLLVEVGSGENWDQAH

O=c1ccn([C@H]2CC(O)[C@@H](COP(=O)(O)NP(=O)(O)OP(=O)(O)O)O2)c(=O)[nH]1 (stereo partly shown) [DUPNHPP]
signal, T-P + Dye-DUTP + Primer1 + DUPNHPP (DUPNHPP added in competition with 0.3 uM Dye-DUTP, DUPNHPP concentration not given): 320
signal +polymerase + DUpNHPP (Template-primer-a 0.015625 uM): 55
signal +polymerase + DUpNHPP (Template-primer-a 0.03125 uM): 114
signal +polymerase + DUpNHPP (Template-primer-a 0.0625 uM): 234
signal +polymerase + DUpNHPP (Template-primer-a 0.125 uM): 438
signal +polymerase + DUpNHPP (Template-primer-a 0.25 uM): 916
signal +polymerase + DUpNHPP (Template-primer-a 0.5 uM): 1802
